“And” between values parts separate entries of the source, which are not always exact repeats. Identical values can stand only once. Like-named read-outs stand apart in the source and are kept apart here.
Columns and labels:
SYK = target: T1, SYK (Homo sapiens, UniProt P43405); experiment: KINOMEscan competition binding, SYK; details: 10 µM compound; for remaining binding at 10 µM: lower = stronger binding, read-out: SYK %Ctrl @ 10000nM (POC)
T1 construct: DNA label for qPCR read-out (T7 phage fusion or DNA tag); purchased Eurofins DiscoverX Corporation; host or cells: T7 phage in E. coli (BL21-derived) or HEK-293
Experimental: The KINOMEscan screening platform (Eurofins DiscoverX Corporation) was performed using active site-directed competition binding assay to quantitatively measure interactions between BK40143 and BK40197 and more than 450 human kinases and disease relevant mutant variants. […] Screening “hits” are identified by measuring the amount of kinase captured in test (BK40143 and BK40197) versus control samples by using a quantitative and ultra-sensitive qRT-PCR method that detects the associated DNA label. BK40143 and BK40197 were screened at 10 µM concentration, and results for primary screen binding interactions were reported as “% Ctrl” (POC), where lower numbers indicate stronger hits and calculated as follows: [test compound signal−positive control signal/negative control signal−positive control signal]×100
negative control = DMSO (100% Ctrl)
positive control = control compound (0% Ctrl)
Based on screening data from of profiled compounds, a proportional relationship between primary screening results and corresponding compound/target affinities can be described as binding constants (Kd values) for the indicated ranges of POC values with tighter binding (higher affinity) interactions associated with lower POC values and weaker binding (lower affinity) associated with higher POC values. Briefly, kinase-tagged T7 phage strains were grown in parallel in 24-well blocks in an E. coli host derived from the BL21 strain. E. coli were grown to log-phase and infected with T7 phage from a frozen stock (multiplicity of infection = 0.4) and incubated with shaking at 32°C until lysis (90–150 min). The lysates were centrifuged (6,000g) and filtered (0.2 μm) to remove cell debris. The remaining kinases were produced in HEK-293 cells and subsequently tagged with DNA for qRT-PCR detection. Streptavidin-coated magnetic beads were treated with biotinylated small molecule ligands for 30 min at RT to generate affinity resins for kinase assays. The liganded beads were blocked with excess biotin and washed with blocking buffer (1% BSA, 0.05% Tween 20, 1 mM DTT; SeaBlock [Pierce]) to remove unbound ligand and to reduce non-specific phage binding. Binding reactions were assembled by combining kinases, liganded affinity beads, and test compounds in 1x binding buffer (20% 0.17x PBS, 0.05% Tween 20, 6 mM DTT; SeaBlock). Test compounds were prepared as 100x stocks in 100% DMSO and directly diluted into the assay. All reactions were performed in polypropylene 384-well plates in a final volume of 0.02 ml. The assay plates were incubated at RT with shaking for 1 h and the affinity beads were washed with wash buffer (1x PBS, 0.05% Tween 20). […] The kinase concentration in the eluates was measured by qRT-PCR.

A53T mice = experiment: Novel object recognition, A53T mice; format: in vivo, mouse; details: 5 mg/kg
Experimental: Novel object recognition was carried out using a 50 × 50 cm arena with clear walls covered by brown construction paper. Mice were habituated to the room for 30 min each day, before being allowed to freely explore the arena for 5 min two times, for 3 d. On the 4th d, two identical objects were placed in the arena in opposite adjacent corners, 10 cm from the corner of the arena. Mice were placed along the wall opposite from the objects and allowed to freely explore for 10 min. Approach behavior (extending nose toward the object) toward both objects was recorded manually using handheld stop watches and compared with ensure there was no preference for either neutral object. For the probe trial, one object was removed and replaced with a novel object, and mice were again allowed to freely explore for 10 min, with approach time towards the novel and familiar objects recorded. Trials in which the mice explored for less than 1 s were excluded. Discrimination index was calculated by dividing time spent exploring the novel object by total time exploring both objects and was compared for treated versus control animals.

mice = experiment: Rotarod (source data sheets only, mouse line not given); format: in vivo; details: for Rotarod trial 1 / Rotarod trial 2: Day 1; for Rotarod trial 1 / Rotarod trial 2 / Rotarod trial 3 / Rotarod trial 4 / Rotarod trial 5 / Rotarod trial 6 / Rotarod D1 AVG / Rotarod D2 AVG / Rotarod D3 AVG / Rotarod Total AVG: individual mice, listed as 143; for Rotarod trial 3 / Rotarod trial 4: Day 2; for Rotarod trial 5 / Rotarod trial 6: Day 3
[1] = ref Fowler et al, 2020; cited from earlier work
[2] = Pharmacokinetic analysis of BK40197 (brain and serum, LC-MS/MS); format: in vivo, C57BL/6 mice; details: for Kp / Tmax / AUC / Cmax: both sexes, C57BL/6, mouse; for Kp: brain/serum, intraperitoneal, read-out: brain to serum ratio
Experimental: The PK profile of BK40197 was investigated after single IP doses of 20 and 45 mg/kg BK40197 to male and female 5–6 mo old C57BL/6 mice compared with DMSO. A solution at 5 ng/ml isotope labelled reference compounds d8-BK40197 was prepared. The solvent used for internal standard (ISTD) dilution is (200 ml/50 ml) acetonitrile/ethyl acetate (ACN/EtOAc). Brain tissue was homogenized in ice water bath and was prepared using weight accurately on analytical balance with 4 decimals. A volume water (MilliQ) was added by adjustable 100–1,000 μl to a concentration at 100 mg brain tissue/ml water. Brain homogenate (25 μl) and plasma sample (25 μl) that was thawed to RT and gently mixed were pipetted to eppendorf tube with lid and 75 μl ISTD added, mixed on vortex and centrifuged for 5 min at […]. A volume of 25 μl milli-Q water and 75 μl brain or plasma samples were added into a 200 μl PE vial and mixed on vortex and 10 μl and injected on LC-MS/MS. All animal work was approved by GUACUC.

TgAPP mice = experiment: Elevated plus maze, TgAPP mice; format: in vivo, mouse; details: 45 mg/kg IP, 6 wk, vs DMSO
Experimental: The elevated plus maze was performed using a standard set up, with two enclosed arms and two open arms. Mice were placed at the intersection of the open and closed arms and allowed to freely explore for 5 min, two times. Time spent in the open and closed arms and number of entries into the open and closed arms were recorded.

Solubility in DMSO = format: physicochemical

Structure (SMILES): Cc1cccc(-c2cc3nccc(Nc4ccccc4)c3s2)c1 [BK40143]
- inhibition at 10 µM (SYK): 94.5%
- remaining binding at 10 µM (SYK): 5.5%
- novel object recognition (A53T mice): significant improvements on novel object recognition
- Rotarod D1 AVG, group mean (mice; 2.5mg/kg): 20.1429 s
- Rotarod D2 AVG, group mean (mice; 2.5mg/kg): 81.5714 s
- Rotarod D3 AVG, group mean (mice; 2.5mg/kg): 111.786 s
- Rotarod Total AVG, group mean (mice; 2.5mg/kg): 71.1667 s
- Rotarod trial 1 (mice; 2.5mg/kg): 2 s and 8 s and 4 s and 23 s and 9 s and 22 s
- Rotarod trial 2 (mice; 2.5mg/kg): 5 s and 11 s and 17 s and 22 s and 130 s and 10 s
- Rotarod trial 3 (mice; 2.5mg/kg): 13 s and 135 s and 4 s and 46 s and 129 s and 117 s
- Rotarod trial 4 (mice; 2.5mg/kg): 29 s and 169 s and 6 s and 101 s and 155 s and 230 s and 4 s
- Rotarod trial 5 (mice; 2.5mg/kg): 15 s and 204 s and 111 s and 60 s and 154 s and 195 s and 10 s
- Rotarod trial 6 (mice; 2.5mg/kg): 60 s and 172 s and 53 s and 88 s and 157 s and 272 s and 14 s
- Rotarod D1 AVG (mice; 2.5mg/kg): 3.5 s and 9.5 s and 10.5 s and 12 s and 76.5 s and 13 s and 16 s
- Rotarod D2 AVG (mice; 2.5mg/kg): 21 s and 152 s and 5 s and 73.5 s and 142 s and 117 s and 60.5 s
- Rotarod D3 AVG (mice; 2.5mg/kg): 37.5 s and 188 s and 82 s and 74 s and 155.5 s and 233.5 s and 12 s
- Rotarod Total AVG (mice; 2.5mg/kg): 20.6667 s and 116.5 s and 32.5 s and 53.1667 s and 124.667 s and 121.167 s and 29.5 s
- Rotarod D1 AVG, group mean (mice; 5.0mg/kg): 27.2 s
- Rotarod D3 AVG, group mean (mice; 5.0mg/kg): 90.7 s
- Rotarod trial 1 (mice; 5.0mg/kg): 54 s and 21 s and 19 s and 2 s and 14 s and 5 s and 29 s and 3 s and 1 s
- Rotarod trial 2 (mice; 5.0mg/kg): 96 s and 41 s and 147 s and 28 s and 9 s and 38 s and 8 s and 10 s and 16 s and 1 s
- Rotarod trial 3 (mice; 5.0mg/kg): 47 s and 74 s and 152 s and 42 s and 51 s and 45 s and 18 s and 6 s and 5 s and 3 s
- Rotarod trial 4 (mice; 5.0mg/kg): 46 s and 47 s and 178 s and 87 s and 35 s and 44 s and 66 s and 4 s and 32 s and 5 s
- Rotarod trial 5 (mice; 5.0mg/kg): 80 s and 109 s and 179 s and 107 s and 92 s and 172 s and 35 s and 61 s and 62 s and 2 s
- Rotarod trial 6 (mice; 5.0mg/kg): 110 s and 99 s and 139 s and 103 s and 133 s and 151 s and 84 s and 20 s and 69 s and 7 s
- Rotarod D1 AVG (mice; 5.0mg/kg): 75 s and 31 s and 83 s and 15 s and 11.5 s and 20 s and 6.5 s and 19.5 s and 9.5 s and 1 s
- Rotarod D2 AVG (mice; 5.0mg/kg): 46.5 s and 60.5 s and 165 s and 64.5 s and 43 s and 44.5 s and 42 s and 5 s and 18.5 s and 4 s
- Rotarod D3 AVG (mice; 5.0mg/kg): 95 s and 104 s and 159 s and 105 s and 112.5 s and 161.5 s and 59.5 s and 40.5 s and 65.5 s and 4.5 s
- Rotarod Total AVG (mice; 5.0mg/kg): 72.1667 s and 65.1667 s and 135.667 s and 61.5 s and 55.6667 s and 75.3333 s and 36 s and 21.6667 s and 31.1667 s and 3.167 s
- brain penetrance [1]: brain penetrant

Structure (SMILES): Cc1cccc(-c2cc3nccc(N4CCOCC4)c3s2)c1 [BK40197]
- inhibition at 10 µM (SYK): 56%
- remaining binding at 10 µM (SYK): 44%
- Kp ([2]; 20 mg/kg IP): 0.251
- Kp ([2]; 45 mg/kg IP): 0.201
- Tmax ([2]; brain, 20 mg/kg single IP, read-out: Brain Tmax): 2 h
- Tmax ([2]; brain, 45 mg/kg single IP, read-out: Brain Tmax): 2 h
- AUC ([2]; serum, 20 mg/kg single IP): 928 ng·h/mL
- Cmax ([2]; serum, 20 mg/kg single IP): 543 ± 82.3 ng/g
- Tmax ([2]; serum, 20 mg/kg single IP, read-out: Serum Tmax): 1 h
- AUC ([2]; serum, 45 mg/kg single IP): 1940 ng·h/mL
- Cmax ([2]; serum, 45 mg/kg single IP): 1100 ± 165 ng/g
- Tmax ([2]; serum, 45 mg/kg single IP, read-out: Serum Tmax): 1 h
- brain penetrance ([2]; single IP dose, C57BL/6 mice): brain penetrant
- elevated plus maze: time in the open arms (TgAPP mice): spent significantly greater time in the open arms of the elevated plus maze
- solubility in DMSO (Solubility in DMSO): insolubility

From PMC11249953, “c-KIT inhibitors reduce pathology and improve behavior in the Tg(SwDI) model of Alzheimer’s disease” (Life Science Alliance, 2024)
